The subject of experiment [1] is HEK293 (native) cells, A2B ≥ A2A. The following applies: cited from earlier work.
For experiment [2], the target named is T1, A2BARs in Jurkat-T cell membranes (Homo sapiens, UniProt P29275).
T1 construct: Human Jurkat-T cells natively expressing A2A and A2BARs; endogenous in cells; host or cells: Jurkat-T
It is filed as binding. To be noted: vs [3H]PSB-603 (0.3 nM); Jurkat-T cells, A2B ≥ A2A; read-out: Ki ± SEM.
Protocol: The preparation of Jurkat-T cell membranes was performed as follows: a Jurkat-T cell suspension was centrifuged in 50 ml falcon tubes at 200 g, 4° C, 5 min. The supernatant was discarded and the cell pellets were quickly frozen at –80° C. The defrosted pellets were then resuspended in ice-cold 25 mM Tris-buffer, 0.32 M sucrose, 1 mM ethylenediaminetetraacetic acid (EDTA), 0.1 mM phenylmethanesulfonylfluoride (PMSF), pH 7.4, and homogenized with an Ultra-Turrax (30 s on ice). The homogenate was centrifuged for 10 min at 1000 g at 4° C. The resulting pellets were discarded and the supernatant was centrifuged for 1 h at 48.000 g at 4° C. Pellets containing the membranes were resuspended in aqua bidest., homogenized with an Ultra-Turrax (30 s on ice) and centrifuged under the same conditions. The supernantant was discarded and the pellets were resuspended in 50 mM Tris-buffer, pH 7.4 and homogenized with a glass Teflon homogenizer on ice. The resuspended and homogenzied pellets were aliquoted and stored at –80° C until use.
After an incubation time of 60 min at rt, the assay mixture was filtered through GF/B glass fiber filters. Washing buffer: 50 mM Tris-HCl buffer, 0.1% bovine serum albumin (BSA), pH 7.4.

The target in experiment [3] is T2, A2BARs in HeLa cell membranes (Homo sapiens, UniProt P29275).
T2 construct: HeLa cells natively expressing human A2A and A2BARs; endogenous in cells; host or cells: HeLa
It is filed as binding. To be noted: vs [3H]PSB-603 (0.3 nM); HeLa cells, A2B ≥ A2A; read-out: Ki ± SEM.
Protocol: (§4) The preparations of CHO and HeLa membranes recombinantly (or natively) expressing human A2A and/or A2BAR subtypes were performed as previously described [5]. Membranes from HEK-A2B or A2A cells, which were used for some of the radioligand competition binding studies, were purchased from Perkin Elmer (Waltham, USA). […] The protein content of all membrane preparations was determined with the Lowry method [58].

The target in experiment [4] is T3, human A2BAR (Homo sapiens, UniProt P29275).
T3 sequence (P29275 1-332): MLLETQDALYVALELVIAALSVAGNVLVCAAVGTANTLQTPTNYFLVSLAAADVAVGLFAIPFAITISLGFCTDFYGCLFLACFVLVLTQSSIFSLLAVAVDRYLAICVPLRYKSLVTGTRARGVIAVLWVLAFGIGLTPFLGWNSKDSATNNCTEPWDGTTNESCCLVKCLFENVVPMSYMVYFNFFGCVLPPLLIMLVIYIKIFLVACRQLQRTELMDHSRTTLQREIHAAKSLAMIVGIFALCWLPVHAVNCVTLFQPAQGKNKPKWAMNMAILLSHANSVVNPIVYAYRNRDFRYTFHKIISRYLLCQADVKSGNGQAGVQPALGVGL
The experiment in a line: cell-based. On the procedure:
(§1) The determination of cAMP accumulation in recombinant CHO and in Jurkat-T cells was performed as previously described.

For experiment [5], the target named is T4, A2A and A2BARs natively expressed in Jurkat-T cells (Homo sapiens, UniProt P29274+P29275). The following applies: read-out: KB-value ± SEM, cAMP accumulation, antagonist potency versus NECA. How it is done: as §1
T4 sequence (P29274 whole entry, one chain of several): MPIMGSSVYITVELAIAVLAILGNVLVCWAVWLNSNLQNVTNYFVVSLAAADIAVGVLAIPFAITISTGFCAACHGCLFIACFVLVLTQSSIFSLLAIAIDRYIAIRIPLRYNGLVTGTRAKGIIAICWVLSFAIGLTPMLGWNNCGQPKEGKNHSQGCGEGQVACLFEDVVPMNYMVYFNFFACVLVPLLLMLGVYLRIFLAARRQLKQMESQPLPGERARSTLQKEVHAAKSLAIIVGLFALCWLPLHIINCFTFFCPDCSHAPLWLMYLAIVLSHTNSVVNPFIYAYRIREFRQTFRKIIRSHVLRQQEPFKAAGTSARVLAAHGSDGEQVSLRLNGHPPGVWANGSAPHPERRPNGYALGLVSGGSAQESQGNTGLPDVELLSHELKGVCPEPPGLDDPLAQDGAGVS
On the technique in general: Cyclic AMP is a second messenger, typically raised through Gs and lowered through Gi signalling.

Experiment [6] concerns the target T5, human A2AAR (Homo sapiens, UniProt P29274).
T5 construct: expressed in transfected cells
The following applies: vs [3H]MSX-2 (1 nM), A2AAR expressing HEK or CHO membranes, read-out: Ki ± SEM, cited from earlier work.

Experiment [7] relates to Human prostatic carcinoma cells PC-3. On the set-up: method as in Wei Q, et al. Purinergic Signal. 2013; 9: 271-280. [23]. To be noted: et al. Purinergic Signal. 2013, 9: 271-280. [23], cited from earlier work.
The target of experiment [8] is T5, human A2AAR. The class given is binding.
Protocol: The preparations of CHO and HeLa membranes recombinantly (or natively) expressing human A2A and/or A2BAR subtypes were performed as previously described [5]. Membranes from HEK-A2B or A2A cells, which were used for some of the radioligand competition binding studies, were purchased from Perkin Elmer (Waltham, USA). The preparation of Jurkat-T cell membranes was performed as follows: a Jurkat-T cell suspension was centrifuged in 50 ml falcon tubes at 200 g, 4° C, 5 min. The supernatant was discarded and the cell pellets were quickly frozen at –80° C. The defrosted pellets were then resuspended in ice-cold 25 mM Tris-buffer, 0.32 M sucrose, 1 mM ethylenediaminetetraacetic acid (EDTA), 0.1 mM phenylmethanesulfonylfluoride (PMSF), pH 7.4, and homogenized with an Ultra-Turrax (30 s on ice). The homogenate was centrifuged for 10 min at 1000 g at 4° C. The resulting pellets were discarded and the supernatant was centrifuged for 1 h at 48.000 g at 4° C. Pellets containing the membranes were resuspended in aqua bidest., homogenized with an Ultra-Turrax (30 s on ice) and centrifuged under the same conditions. The supernantant was discarded and the pellets were resuspended in 50 mM Tris-buffer, pH 7.4 and homogenized with a glass Teflon homogenizer on ice. […] The protein content of all membrane preparations was determined with the Lowry method [58].
The target of experiment [9] is T5, human A2AAR. The experiment in a line: cAMP accumulation assay in CHO-A2A cells. The class given is cell-based. On the procedure:
as §1

Experiment [10] concerns the target T3, human A2BAR. In words: biochemical.
Protocol: as §4
Experiment [11] concerns HEK-A2B cells, A2B ≥ A2A. To be noted: cited from earlier work.
Experiment [12] deals with CHO-K1 cell membranes (non-transfected). In words: Radioligand affinity (saturation or homologous competition) at CHO cells. The class given is binding, Chinese hamster. How it is done: (§2) Radioligand receptor binding experiments at membrane preparation of native (HeLa) and recombinant cells (CHO- or HEK cells recombinantly expressing A2A and/or A2BARs) using the A2B-selective antagonist radioligand [³H]PSB-603 (spec. activity: 79 Ci/mmol) to detect A2BARs were performed as previously described. Competition binding experiments at various membrane preparations of native (HeLa, Jurkat-T) and recombinant cells (CHO or HEK cells expressing A2A and/or A2BARs) using the A2A-selective antagonist radioligand [^3H]MSX-2 (spec. activity: 85 Ci/mmol) to detect A2AARs were performed in analogy to described procedures. […] Non-specific binding was determined in the presence of unlabeled MSX-2, or CGS-15943, respectively (10 µM), both giving identical results.
(§3) The assay was performed in a final volume of 400 µl containing 4 µl of test compound dissolved in DMSO, 196 µl buffer (50 mM Tris-HCl, 10 mM MgCl2 pH 7.4), 100 µl of radioligand solution in the same buffer (5 nM), and 100 µl of membrane preparation (10 to 200 µg of protein per vial, 2 U/ml ADA 20 min incubation at rt). […] All data were analyzed with GraphPad Prism, Version 4 (GraphPad Inc., La Jolla, CA).

In experiment [13] the target is T5, human A2AAR. The experiment in a line: Radioligand affinity at HEK or CHO-A2A. It is filed as binding. The following applies: saturation. On the procedure:
as §2, §3

In experiment [14] the target is T6, HA-tagged human A2AAR (Homo sapiens, UniProt P29274).
T6 construct: HA; expressed in transfected cells
T6 sequence (P29274 whole entry): as the sequence (P29274 whole entry, one chain of several) above
The experiment in a line: Radioligand affinity at CHO-HA-A2A. It is filed as binding. To be noted: homologous competition.

Experiment [15] deals with T7, A2A and A2BARs in Jurkat-T cell membranes (Homo sapiens, UniProt P29274+P29275).
T7 construct: Human Jurkat-T cells natively expressing A2A and A2BARs; endogenous in cells; host or cells: Jurkat-T
T7 sequence (P29274 whole entry, one chain of several): as above
The experiment in a line: Radioligand affinity at Jurkat-T cells (A2B ≥ A2A). The class given is binding. To be noted: homologous competition. How it is done: as §2
The assay was performed in a final volume of 400 µl containing 4 µl of test compound dissolved in DMSO, 196 µl buffer (50 mM Tris-HCl, 10 mM MgCl2 pH 7.4), 100 µl of radioligand solution in the same buffer (5 nM), and 100 µl of membrane preparation (10 to 200 µg of protein per vial, 2 U/ml ADA 20 min incubation at rt). […] All data were analyzed with GraphPad Prism, Version 4 (GraphPad Inc., La Jolla, CA). […]

For experiment [16], the target named is T8, A2A and A2BARs in HeLa cell membranes (Homo sapiens, UniProt P29274+P29275).
T8 construct: HeLa cells natively expressing human A2A and A2BARs; endogenous in cells; host or cells: HeLa
T8 sequence (P29274 whole entry, one chain of several): as above
The experiment in a line: Radioligand affinity at HeLa cells (A2B ≥ A2A). The class given is binding. The following applies: homologous competition, read-out: KD ± SEM. On the procedure: as §2, §3

The target of experiment [17] is A2A and A2BARs in intact primary human lymphocytes. The experiment in a line: Radioligand affinity at intact primary human T-lymphocytes, unstimulated. The following applies: T-Lymphocytes unstimulated (A2A > A2B), intact cells, homologous competition. It is filed as binding.
Experiment [18] has the same target. The experiment in a line: Radioligand affinity at intact primary human T-lymphocytes, stimulated with phytohemagglutinin. The class given is binding. The following applies: T-Lymphocytes stimulated (A2A > A2B); intact cells; homologous competition; read-out: KD ± SEM.
Experiment [19] has as its target T3, human A2BAR. The arrangement: expressed in transfected cells; method as in ref [12] (a number printed in a supplementary file, which may have a reference list of its own: not looked up in the article's list). The following applies: HEK or CHO-A2B (A2B); saturation; ref [12]; read-out: KD ± SEM; cited from earlier work.
For experiment [20], the system named is T24 human bladder carcinoma cells. The following applies: T24 human bladder carcinoma, cited from earlier work.
The target of experiment [21] is T9, human A2AAR and A2BAR in HEK293T cells (Homo sapiens, UniProt P29274+P29275).
T9 construct: expressed in transfected cells; host or cells: HEK293T
T9 sequence (P29274 whole entry, one chain of several): as above
The experiment in a line: cAMP assay at HEK-A2A cells transiently transfected with increasing amounts of A2BAR. The class given is cell-based. To be noted: 100 nM agonist, A2BAR cDNA 0.25–1.5 µg.
Protocol: HEK293T cells were transiently transfected with the corresponding cDNA (pcDNA3.1+-hA2B, pcDNA3.1+-hA2A) by the polyethylenimine (Sigma) method [62]. The determination of AR-induced cAMP accumulation in HEK293T cells transiently expressing A2A and A2BARs was performed as previously described [62].

Experiment [22] concerns the target T9, human A2AAR and A2BAR in HEK293T cells. The experiment in a line: Dynamic mass redistribution (DMR) assay in HEK293T cells transfected with A2A and A2BAR cDNA. It is filed as cell-based. To be noted: 100 nM agonist.
Protocol: In brief, 24 h before the assay, cells were seeded at a density of 7,500 cells per well in 384-well sensor microplates with 40 µl of growth medium and cultured for 24 h (37° C, 5 % CO2) to obtain 70–80% confluent monolayers. […] Hereafter, the sensor plate was scanned and a baseline optical signature was recorded before adding 10 µl of test compound dissolved in assay buffer containing 0.1% DMSO and DMR responses were monitored for at least 8,000 s using an EnSpire® Multimode Plate Reader (PerkinElmer, Waltham, MA, USA) by a label-free technology. Data were analyzed using EnSpire Workstation Software v 4.10.
Experiment [23] addresses T4, A2A and A2BARs natively expressed in Jurkat-T cells. The arrangement: method as in ref [15] (a number printed in a supplementary file, which may have a reference list of its own: not looked up in the article's list). To be noted: cAMP accumulation, up to 10 µM, ref [15]; cited from earlier work.
For experiment [24], the system named is prostate cancer cell lines (A2B > A2A). The following applies: three prostate cancer cell lines (A2B > A2A); ref [13]; cited from earlier work.
For experiment [25], the target named is T3, human A2BAR. On the set-up: expressed in transfected cells. The following applies: vs [3H]PSB-603 (0.3 nM); A2BAR expressing HEK or CHO membranes; ref [14]; read-out: Ki ± SEM; cited from earlier work.
The target of experiment [26] is T3, human A2BAR. On the set-up: expressed in transfected cells. To be noted: cAMP accumulation; CHO-A2B; ref [13]; cited from earlier work.
For experiment [27], the system named is isolated perfused mouse heart. The following applies: A2B knockout vs wildtype mice, ref [51]; cited from earlier work.
Where [28] appears, read: ref Cooper J, et al. Br J Pharmacol. 1997, 122: 546-550. [18].
The mark [29] stands for this setting: ref Hinz S, et al. J Pharmacol Exp Ther. 2014, 3: 427-436. [15].
Setting [30] is: ref Phelps PT, et al. Eur J Pharmacol. 2006, 536: 28-37. [20].
Where [31] appears, read: ref Gao Z, et al. Biochem Pharmacol. 2014, 90: 297-306. [17].

The term Ki denotes the equilibrium dissociation constant of an inhibitor or competing ligand from its target. The term EC50 denotes the concentration at which the effect is half-maximal. Usually Kd stands for a measure of binding affinity in units of concentration.

Like-named read-outs stand apart in the source and are kept apart here. A value given as a limit tells only on which side of the number the result lay.

T5 sequence (P29274 whole entry): as the sequence (P29274 whole entry, one chain of several) above

Consider `CCCn1c(=O)c2[nH]c(C3CCCC3)nc2n(CCC)c1=O` [DPCPX, 8-cyclopentyl-1,3-dipropylxanthine], for which the “A2B antagonist IC50/KB” value in experiment [1] (setting [28]) is given as “DPCPX: 97.7 nM”.

With `CCCn1c(=O)[nH]c2nc(-c3ccc(S(=O)(=O)N4CCN(c5ccc(Cl)cc5)CC4)cc3)[nH]c2c1=O` [PSB-603, 8-(4-(4-(4-chlorophenyl)-piperazine-1-sulfonyl)phenyl)-1-propylxanthine], the Ki in experiment [2] was 1.43 ± 0.58 nM; in experiment [3], 1.43 ± 0.73 nM; in [6] (ref [12]), > 10000 nM. The Kb in [4] was 0.358 nM; in experiment [5], 0.871 nM; in experiment [7] (versus BAY60-6583, ref Wei Q, read-out: A2B antagonist KB), 1 nM.

Turning to `C#CCn1c(=O)c2c(nc(C=Cc3cccc(OC)c3)n2C)n(CCCO)c1=O` [MSX-2, 3-(3-hydroxypropyl)-7-methyl-8-(m-methoxystyryl)-1-propargylxanthine], the Ki in [8] is 5 ± 0.6 nM; in experiment [6] (ref [13]), 2.03 nM; in [10], > 1000 nM. The Kb in experiment [9] (read-out: KB-value ± SEM) turned out to be 14.5 ± 3.6 nM.

With `Nc1ncnc2c1ncn2[C@@H]1O[C@H](CO)[C@@H](O)[C@H]1O` [adenosine], the EC50 was 65000 nM in [1] (setting [28]) and 2510 nM in [11] (setting [29]).

For `CCCn1c(=O)[nH]c2nc(-c3ccc(S(=O)(=O)N4CCN(c5ccc(Cl)cc5)CC4)cc3)[nH]c2c1=O` [[³H]PSB-603], the “KD ± SEM” value is on record as “no high-affinity binding” in [12]; “no high-affinity binding” in experiment [13]; “no high-affinity binding” in experiment [14]; “high affinity binding” in [15]; “High affinity binding” in [17]. Further, the Kd in experiment [15] (read-out: KD ± SEM) is 2.09 ± 0.72 nM; in experiment [16] it was 2.49 ± 1.39 nM; in experiment [17] (read-out: KD ± SEM), 0.68 ± 0.242 nM; in experiment [18] it was 0.241 ± 0.108 nM; in experiment [19] it was 0.403 ± 0.188 nM.

As for `CCNC(=O)[C@H]1O[C@@H](n2cnc3c(N)nc(NCCc4ccc(CCC(=O)O)cc4)nc32)[C@H](O)[C@@H]1O` [[³H]CGS-21680], the “KD ± SEM” value in experiment [12] is “No binding”.

Consider `CCCn1c(=O)c2[nH]c(-c3ccc(OCC(=O)Nc4ccc(C#N)cc4)cc3)nc2n(CCC)c1=O` [MRS1754], for which, in [20] (setting [30]), the “A2B antagonist IC50/KB” value is on record as “MRS1754: 665 nM”.

In the case of `N#Cc1c(N)nc(SCC(N)=O)c(C#N)c1-c1ccc(OCC2CC2)cc1` [BAY60-6583], the Ki in experiment [2] is 2960 nM; in experiment [3] it was 212 ± 58 nM; in [25], 212 ± 20 nM. The EC50 was > 10000 nM in experiment [9] (cAMP accumulation, CHO-A2A); 296 nM in experiment [1] (setting [31]); 6.14 nM in [11] (setting [31]); 505 nM in experiment [11] (setting [29]); 43 nM in experiment [20] (setting [31]); 7.2 nM in [7] (ref Wei Q). Moreover, the EC50 in experiment [26] is 165 nM. Moreover, the “change in cAMP accumulation with increasing amounts of transiently transfected A2BAR” value in [21] is “significant increase in cAMP accumulation”. Further, the “change in DMR signal with increasing amounts of transiently transfected A2BAR” value in experiment [22] was “time-dependent increase in the signal”. Also, in [23], the “EC50 (result in words)” value is “low signal”. In addition, the “induction of cAMP accumulation” value in experiment [24] was “concentration-dependently induced cAMP accumulation”.

Regarding `Nc1nc2c(cnn2CCc2ccccc2)c2nc(-c3ccco3)nn12` [SCH58261], the “A2A antagonist IC50/KB” value in experiment [20] (setting [30]) is reported as “SCH58261:405 nM”. Also, the “block of NECA-induced increase in coronary flow” value in [27] was “blocked NECA-induced increase in coronary flow to a higher degree in KO than in WT mice”.

The values are drawn from publication PMC5862601 (Oncotarget, 2018).
